“And” between values parts separate entries of the source, which are not always exact repeats. Identical values can stand only once. Like-named read-outs stand apart in the source and are kept apart here.
Experiments:
[1] = molecular target: T1, human β3-adrenergic receptor (Homo sapiens, UniProt P13945); assay: cAMP response (SPA kit) in CHO cells transfected with human β3 adrenergic receptor; format: cell-based; settings: for EC50: CHO cells expressing human β3-AR, 10^-9 M to 10^-5 M, 30 min at 37° C., cAMP by SPA; for IA(β3): maximal response of compound compared to maximal response of isoproterenol at 10^-5 M, CHO cells, human β3-AR
T1 construct: Full length β3 AR clones (402 amino acids) containing the last 6 amino acids of hβ3—AR are prepared; expressed in transfected cells; host or cells: CHO cells
T1 sequence (P13945 whole entry): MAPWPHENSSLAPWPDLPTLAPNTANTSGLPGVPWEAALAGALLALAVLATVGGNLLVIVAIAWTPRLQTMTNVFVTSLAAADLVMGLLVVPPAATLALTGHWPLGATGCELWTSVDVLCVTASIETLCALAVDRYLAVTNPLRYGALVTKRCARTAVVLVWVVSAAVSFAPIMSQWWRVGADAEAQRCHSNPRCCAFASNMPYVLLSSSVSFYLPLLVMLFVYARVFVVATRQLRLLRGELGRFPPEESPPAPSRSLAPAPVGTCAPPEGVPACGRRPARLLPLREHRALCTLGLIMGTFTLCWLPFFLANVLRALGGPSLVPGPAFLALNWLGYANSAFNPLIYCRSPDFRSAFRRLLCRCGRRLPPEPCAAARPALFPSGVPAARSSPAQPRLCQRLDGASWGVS

Structure (SMILES): COc1ccc(C2CCN(C(=O)N3CCC(Nc4ccc(CCNC[C@H](O)COc5ccc(O)cc5)cc4)CC3)CC2)cc1OC1CCCC1 [Example 17, [4-(3-Cyclopentyloxy-4-methoxy-phenyl)-piperidin-1-yl]-[4-(4-{2-[(2S)-2-hydroxy-3-(4-hydroxy-phenoxy)-propylamino]-ethyl}-phenylamino)-piperidin-1-yl]-methanone]
- EC50 ([1]; read-out: EC50(β3)): 0.015 µM
- IA(β3) [1]: 0.63
- melting point: 92 to 95 °C

Structure (SMILES): COc1cccc(CNC(=O)N2CCC(Nc3ccc(CCNC[C@H](O)COc4ccc(O)cc4)cc3)CC2)c1OC [Example 25, 4-(4-{2-[(2S)-2-Hydroxy-3-(4-hydroxy-phenoxy)-propylamino]-ethyl}-phenylamino)-piperidine-1-carboxylic Acid 2,3-dimethoxy-benzylamide]
- EC50 ([1]; read-out: EC50(β3)): 0.064 µM
- IA(β3) [1]: 0.87
- melting point: 87 to 91 °C

Structure (SMILES): O=C(c1cc2cccc([N+](=O)[O-])c2[nH]1)N1CCC(Nc2ccc(CCNC[C@H](O)COc3ccc(O)cc3)cc2)CC1 [Example 95, [4-(4-{2-[(2S)-2-Hydroxy-3-(4-hydroxy-phenoxy)-propylamino]-ethyl}-phenylamino)-piperidin-1-yl]-(7-nitro-1H-indol-2-yl)-methanone]
- EC50 ([1]; read-out: EC50(β3)): 0.066 µM
- IA(β3) [1]: 0.9
- melting point: 100 to 102 °C

Structure (SMILES): COc1cc(OCCCOc2ccccc2)ccc1CCNC(=O)N1CCC(Nc2ccc(CCNC[C@H](O)COc3ccc(O)cc3)cc2)CC1 [Example 71, 4-(4-{2-[(2S)-2-Hydroxy-3-(4-hydroU-phenoxy)-propylamino]-ethyl}-phenylamino)-piperidine-1-carboxylic Acid {2-[2-methoxy-4-(3-phenoxy-propoxy)-phenyl]-ethyl}-amide]
- EC50 ([1]; read-out: EC50(β3)): 0.14 µM
- IA(β3) [1]: 0.94
- melting point: 67 to 69 °C

Structure (SMILES): O=C(NCCCCCCCCF)N1CCC(Nc2ccc(CCNC[C@H](O)COc3ccc(O)cc3)cc2)CC1 [Example 55, N-(8-Fluorooctyl)-4-[4-(2-{[(2S)-2-hydroxy-3-(4-hydroxyphenoxy)propyl]amino}ethyl)anilino]-1-piperidinecarboxamide]
- EC50 ([1]; read-out: EC50(β3)): 0.171 µM
- IA(β3) [1]: 1.07
- melting point: 148 to 150 °C

Structure (SMILES): CCCCCCCCNC(=O)N1CCC(Nc2ccc(CCNC[C@H](O)COc3cccc4[nH]c(=O)[nH]c34)cc2)CC1 [Example 60, 4-(4-{2-[(2S)-2-Hydroxy-3-(2-oxo-2,3-dihydro-1H-benzoimidazol-4-yloxy)-propylamino]-ethyl}-phenylamino)-piperidine-1-carboxylic Acidoctylamide]
- EC50 ([1]; read-out: EC50(β3)): 0.012 µM
- IA(β3) [1]: 0.45
- melting point: 113 to 115 °C

Structure (SMILES): CC(C)CCNC(=O)N1CCC(Nc2ccc(CCNC[C@H](O)COc3ccc(O)cc3)cc2)CC1 [Example 35, 4-(4-{2-[(2S)-2-Hydroxy-3-(4-hydroxy-phenoxy)-propylamino]-ethyl}-phenylamino)-piperidine-1-carboxylic Acid (3-methyl-butyl)-amide]
- EC50 ([1]; read-out: EC50(β3)): 0.133 µM
- IA(β3) [1]: 0.96
- melting point: 72 to 77 °C

Structure (SMILES): CN(C)C(=O)Oc1ccc(CCNC(=O)N2CCC(Nc3ccc(CCNC[C@H](O)COc4ccc(O)cc4)cc3)CC2)cc1 [Example 74, Dimethyl-carbamic Acid 4-(2-{[4-(4-{2-[(2S)-2-hydroxy-3-(4-hydroxy-phenoxy)-propylamino]-ethyl}-phenylamino)-piperidine-1-carbonyl]-amino}-ethyl)-phenyl Ester]
- EC50 ([1]; EC50(β3, μM)): 0.045 µM
- IA(β3) [1]: 0.88
- melting point: 86 to 88 °C

Structure (SMILES): Cc1ccsc1C(=O)N1CCC(Sc2ccc(CCNC[C@H](O)COc3ccc(O)cc3)cc2)CC1 [Example 106, [4-(4-{2-[(2S)-2-Hydroxy-3-(4-hydroxy-phenoxy)-propylamino]-ethyl}-phenylsulfanyl)-piperidin-1-yl]-(3-methyl-thiophen-2-yl)-methanone]
- EC50 ([1]; read-out: EC50(β3)): 0.127 µM
- IA(β3) [1]: 0.79
- melting point: 135 to 144 °C

Structure (SMILES): Cc1ccc(C(=O)CCNC(=O)N2CCC(Nc3ccc(CCNC[C@H](O)COc4ccc(O)cc4)cc3)CC2)cc1 [Example 28]
- EC50 ([1]; read-out: EC50(β3)): 0.01 µM
- IA(β3) [1]: 0.76
- melting point: 85 to 89 °C

Structure (SMILES): O=C(NCc1c(F)cccc1F)N1CCC(Nc2ccc(CCNC[C@H](O)COc3ccc(O)cc3)cc2)CC1 [Example 32, 4-(4-{2-[(2S)-2-Hydroxy-3-(4-hydroxy-phenoxy)-propylamino]-ethyl}-phenylamino)-piperidine-1-carboxylic Acid 2,6-difluoro-benzylamide]
- IA(β3) [1]: 1.04 and 0.77
- melting point: 80 to 84 °C

Structure (SMILES): O=C(Nc1ccccc1)N1CCC(Sc2ccc(CCNC[C@H](O)COc3ccc(O)cc3)cc2)CC1 [Example 40, 4-(4-{2-[(2S)-2-Hydroxy-3-(4-hydroxy-phenoxy)-propylamino]-ethyl}-phenylsulfanyl)-piperidine-1-carboxylic Acid Phenylamide]
- EC50 ([1]; read-out: EC50(β3)): 0.101 µM
- IA(β3) [1]: 0.9
- melting point: 121 °C

Structure (SMILES): O=C(NCc1cc(F)cc(F)c1)N1CCC(Nc2ccc(CCNC[C@H](O)COc3ccc(O)cc3)cc2)CC1 [Example 24, 4-(4-{2-[(2S)-2-Hydroxy-3-(4-hydroxy-phenoxy)-propylamino]-ethyl}-phenylamino)-piperidine-1-carboxylic Acid 3,5-difluoro-benzylamide]
- EC50 ([1]; read-out: EC50(β3)): 0.04 µM
- IA(β3) [1]: 0.84
- melting point: 89 to 95 °C

Structure (SMILES): CCCCCCCCNC(=O)N1CCC(Nc2ccc(CCNC[C@H](O)COc3ccc(O)c(F)c3)cc2)CC1 [Example 65, 4-(4-{2-[(2S)-3-(3-Fluoro-4-hydroxy-phenoxy)-2-hydroxy-propylamino]-ethyl}-phenylamino)-piperidine-1-carboxylic Acid Octylamide]
- EC50 ([1]; read-out: EC50(β3)): 0.3 µM
- IA(β3) [1]: 0.57
- melting point: 60 to 62 °C

Structure (SMILES): O=C(NCc1ccc(-n2cccn2)cc1C(F)(F)F)N1CCC(Nc2ccc(CCNC[C@H](O)COc3ccc(O)cc3)cc2)CC1 [Example 34, 4-(4-{2-[(2S)-2-Hydroxy-3-(4-hydroxy-phenoxy)-propylamino]-ethyl}-phenylamino)-piperidine-1-carboxylic Acid 4-pyrazol-1-yl-2-trifluoromethyl-benzylamide]
- EC50 ([1]; read-out: EC50(β3)): 0.062 µM
- IA(β3) [1]: 0.83
- melting point: 96 to 100 °C

Structure (SMILES): O=C(NCCCc1cccs1)N1CCC(Nc2ccc(CCNC[C@H](O)COc3ccc(O)cc3)cc2)CC1 [Example 23, 4-(4-{2-[(2S)-2-Hydroxy-3-(4-hydroxy-phenoxy)-propylamino]-ethyl}-phenylamino)-piperidine-1-carboxylic Acid (3-thiophen-2-yl-propyl)-amide]
- EC50 ([1]; read-out: EC50(β3)): 0.01 µM
- IA(β3) [1]: 0.88
- melting point: 73 to 77 °C

Structure (SMILES): CCCCCCCCNC(=O)N1CCC(Nc2ccc(CCNC[C@H](O)COc3ccc(O)c4c3CCC(=O)N4)cc2)CC1 [Example 69, 4-(4-{2-[(2S)-2-Hydroxy-3-(8-hydroxy-2-oxo-1,2,3,4-tetrahydro-quinolin-5-yloxy)-propylamino]-ethyl}-phenylamino)-piperidine-1-carboxylicacid Octylamide]
- IA(β3) [1]: 0.67
- melting point: 83 to 85 °C

Structure (SMILES): CCCCCCCCNC(=O)N1CCC(Nc2ccc(CCNC[C@H](O)COc3ccc(O)cc3Cl)cc2)CC1 [Example 16, 4-[4-(2-{[(2S)-3-(2-Chloro-4-hydroxyphenoxy)-2-hydroxypropyl]amino}ethyl)anilino]-N-octyl-1-piperidinecarboxamide]
- EC50 ([1]; read-out: EC50(β3)): 0.542 µM
- IA(β3) [1]: 1
- melting point: 61 to 65 °C

Structure (SMILES): CCCCCCCCS(=O)(=O)N1CCC(Nc2ccc(CCNC[C@H](O)COc3ccc(O)cc3)cc2)CC1 [Example 111]
- EC50 ([1]; read-out: EC50(β3)): 0.125 µM
- IA(β3) [1]: 0.78
- melting point: 64 to 68 °C

Structure (SMILES): O=C(NCC(F)(F)F)N1CCC(Nc2ccc(CCNC[C@H](O)COc3ccc(O)cc3)cc2)CC1 [Example 13, 4-(4-{2-[(2S)-2-Hydroxy-3-(4-hydroxy-phenoxy)-propylamino]-ethyl}-phenylamino)-piperidine-1-carboxylic Acid (2,2,2-trifluoro-ethyl)-amide]
- EC50 ([1]; read-out: EC50(β3)): 0.066 µM
- IA(β3) [1]: 0.82
- melting point: 89 to 94 °C

Structure (SMILES): O=C(NCc1cc(F)ccc1F)N1CCC(Nc2ccc(CCNC[C@H](O)COc3ccc(O)cc3)cc2)CC1 [Example 37, 4-(4-{2-[(2S)-2-Hydroxy-3-(4-hydroxy-phenoxy)-propylamino]-ethyl}-phenylamino)-piperidine-1-carboxylic Acid 2,5-difluoro-benzylamide]
- IA(β3) [1]: 0.92
- melting point: 69 to 72 °C

Structure (SMILES): O=C(NCc1ccc(F)cc1)N1CCC(Sc2ccc(CCNC[C@H](O)COc3ccc(O)cc3)cc2)CC1 [Example 42, 4-(4-{2-[(2S)-2-Hydroxy-3-(4-hydroxy-phenoxy)-propylamino]-ethyl}-phenylsulfanyl)-piperidine-1-carboxylic Acid-4-fluorobenzylamide]
- EC50 ([1]; read-out: EC50(β3)): 0.095 µM
- IA(β3) [1]: 0.72
- melting point: 181 to 183 °C

Structure (SMILES): O=C([C@@H]1CCCN1S(=O)(=O)c1ccc(F)cc1)N1CCC(Nc2ccc(CCNC[C@H](O)COc3ccc(O)cc3)cc2)CC1 [Example 104, [(2S)-1-(4-Fluoro-benzenesulfonyl)-pyrrolidin-2-yl]-[4-(4-{2-[(2S)-2-hydroxy-3-(4-hydroxy-phenoxy)-propylamino]-ethyl}-phenylamino)-piperidin-1-yl]-methanone]
- EC50 ([1]; read-out: EC50(β3)): 0.085 µM
- IA(β3) [1]: 0.97
- melting point: 87 to 89 °C

Structure (SMILES): CCCCCCCCNC(=O)Nc1ccc(S(=O)(=O)N2CCC(Nc3ccc(CCNC[C@H](O)c4ccc(O)c(NS(C)(=O)=O)c4)cc3)CC2)cc1 [Example 116, N-(2-Hydroxy-5-{(1R)-1-hydroxy-2-[2-(4-{1-[4-(3-octyl-ureido)-benzenesulfonyl]-piperidin-4-ylamino}-phenyl)-ethylamino]-ethyl}-phenyl)-methanesulfonamide]
- EC50 ([1]; read-out: EC50(β3)): 0.001 µM
- IA(β3) [1]: 1.1
- melting point: 134 to 136 °C

From patent publication US6451814B1, “Heterocyclic β-3 adrenergic receptor agonists” (Wyeth, priority 2000, dated 2002)
